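Values below derive from 48-hour exposures of cells grown in 96-well plates, with endpoints linearly interpolated between the two concentrations bracketing the appropriate inhibition level. GI50 is the concentration that inhibits growth by half. TGI: concentration producing complete growth inhibition.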
Tests used:
Assay in all cases: NCI tumour cell line growth inhibition, 48 h
SF-295 CNS = test system: SF-295 CNS
NCI/ADR-RES ovarian = test system: NCI/ADR-RES ovarian
SK-MEL-2 melanoma = test system: SK-MEL-2 melanoma
NCI-H23 lung = test system: NCI-H23 lung
SN12C renal = test system: SN12C renal
RPMI-8226 leukemia = test system: RPMI-8226 leukemia
HCT-116 colon = test system: HCT-116 colon
OVCAR-8 ovarian = test system: OVCAR-8 ovarian
T-47D breast = test system: T-47D breast
786-0 renal = test system: 786-0 renal

SMILES | TGI (SF-295 CNS) [µM] | TGI (NCI/ADR-RES ovarian) [µM] | TGI (SK-MEL-2 melanoma) [µM] | TGI (NCI-H23 lung) [µM] | TGI (SN12C renal) [µM] | TGI (RPMI-8226 leukemia) [µM] | TGI (HCT-116 colon) [µM] | TGI (OVCAR-8 ovarian) [µM] | TGI (T-47D breast) [µM] | GI50 (SF-295 CNS) [µM] | GI50 (NCI/ADR-RES ovarian) [nM] | GI50 (SK-MEL-2 melanoma) [µM] | GI50 (NCI-H23 lung) [nM] | GI50 (SN12C renal) [nM] | GI50 (RPMI-8226 leukemia) [nM] | GI50 (HCT-116 colon) [nM] | GI50 (OVCAR-8 ovarian) [nM] | TGI (786-0 renal) [µM] | GI50 (T-47D breast) [nM]
COc1cc2ccc(=O)oc2cc1O | 79.7 | 277 | 577 | > 414 | 282 | 438 | > 625 | 424 | – | – | – | – | – | – | – | – | – | – | –
CC(NC(=O)C(NC(=O)CNC(=O)OC(C)(C)C)C(C)C)C(=O)Oc1c(Cl)c(Cl)c(Cl)c(Cl)c1Cl (configuration not stated) | 34.3 | 39.1 | 30.3 | 29.5 | 42 | > 100 | 31.2 | 40.8 | 62.4 | – | – | – | – | – | – | – | – | – | –
C/C=C/c1cc(=O)c([C@@H]2OC(=O)c3cc(OC)cc(OC)c32)co1 | > 100 | – | > 100 | > 100 | – | > 100 | > 100 | > 100 | – | – | – | – | – | – | – | – | – | – | –
Cc1cc(F)ccc1S(=O)(=O)Nc1cc(-c2c(O)ccc3ccccc23)c(O)c2ccccc12 | 10.3 | 13.6 | 5.73 | 13.3 | 15.5 | 24 | 11.3 | > 100 | – | 3.02 | 3050 | 2 | 2770 | 2800 | 2890 | 2700 | 3650 | – | –
CCCCCCCC/C=C\CCCCCCC/C=C1\C[C@](/C=C/C(=O)OC)(CO)OC1=O | 14.1 | 14.6 | 23.9 | 16.1 | 4.01 | – | 6.26 | 8.5 | 13.1 | – | – | – | – | – | – | – | – | 3.61 | –
CCNCCCn1c2c(c3ccc(Cl)cc3c1=O)C(=O)c1cc(OC)cnc1-2 | – | 2.53 | 29.2 | 2.47 | 2.79 | 3.65 | 1.56 | 3.22 | 1.58 | – | 282 | 12.5 | 539 | 675 | 1250 | 203 | 694 | – | 161
CSCCC(N)C(=O)NCCNc1ccc(NCCNC(=O)C(N)CCSC)c2c1C(=O)c1ccccc1C2=O (configuration not stated) | 10.7 | 16.2 | 7.59 | 2.32 | 2.55 | – | 2.16 | 4.17 | 10.9 | – | – | – | – | – | – | – | – | 1.89 | –
O=C1CCCCC/C1=C\c1ccc([N+](=O)[O-])cc1 | > 100 | > 100 | > 100 | – | 59.6 | 97 | 57.6 | > 100 | > 100 | – | – | – | – | – | – | – | – | 54.6 | –
COc1c(O)c(C=O)c2c(O)c(-c3c(C)cc4c(C(C)C)c(OC)c(O)c(C=O)c4c3O)c(C)cc2c1C(C)C | 17 | – | 11.1 | 13.2 | 8.45 | 22.4 | 5.39 | 16.4 | – | – | – | – | – | – | – | – | – | – | –
NC(=O)NNc1nc(-c2ccccc2)cs1 | > 100 | > 100 | > 100 | – | > 100 | > 100 | > 100 | > 100 | > 100 | – | – | – | – | – | – | – | – | > 100 | –
Nc1ccc(S(=O)(=O)c2ccc(NCN3C(=O)NC(=O)C(=O)C3=O)cc2)cc1 | > 100 | > 100 | > 100 | > 100 | > 100 | – | > 100 | > 100 | > 100 | – | – | – | – | – | – | – | – | > 100 | –

Reference: PubChem BioAssay (NCI)
